Several values for one entry are separate records, joined by “and”; a condition that tells them apart may be missing. Identical values can stand only once. Toxic doses and inconclusive results are not listed.
Tested on: BDF1 mice, P388 leukemia ip, median survival T/C
Experiment: NCI In Vivo Anticancer Drug Screen. Data for tumor model P388 Leukemia (intraperitoneal) in B6D2F1 (BDF1) mice
Conditions: endpoint: median survival time, higher = longer survival
Outline: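 Mice carrying the transplantable tumour receive compound or vehicle. Survival is followed in each arm, and the treated measure is divided by the vehicle measure.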

[1] = dose: 100.0 mg/kg/injection, schedule: Q04DX002 (ip), vehicle: saline with Tween-80
[2] = dose: 400.0 mg/kg/injection, schedule: Q04DX003 (ip), vehicle: saline
[3] = dose: 100.0 mg/kg/injection, schedule: Q01DX009 (ip), vehicle: saline
[4] = dose: 200.0 mg/kg/injection, schedule: Q01DX009 (ip), vehicle: saline

## COC1=C(N)C(=O)c2nc(-c3nc(C(=O)O)c(C)c(-c4ccc(OC)c(OC)c4O)c3N)ccc2C1=O
dose: 0.01 mg/kg/injection, schedule: Q01DX010 (ip), vehicle: saline
  T/C: 110 % of control
dose: 0.02 mg/kg/injection, schedule: Q01DX009 (ip), vehicle: other
  T/C: 118 % of control
dose: 0.03 mg/kg/injection, schedule: Q01DX009 (ip), vehicle: dioxane
  T/C: 97 % of control
dose: 0.03 mg/kg/injection, schedule: Q01DX009 (ip), vehicle: saline
  T/C: 114 % of control
dose: 0.04 mg/kg/injection, schedule: Q01DX009 (ip), vehicle: dioxane
  T/C: 99 % of control and 100 % of control
dose: 0.05 mg/kg/injection, schedule: Q01DX009 (ip), vehicle: dioxane
  T/C: 114 % of control
dose: 0.05 mg/kg/injection, schedule: Q01DX009 (ip), vehicle: saline
  T/C: 161 % of control
dose: 0.05 mg/kg/injection, schedule: Q01DX010 (ip), vehicle: water
  T/C: 118 % of control
dose: 0.05 mg/kg/injection, schedule: Q04DX002 (ip), vehicle: saline
  T/C: 112 % of control
dose: 0.06 mg/kg/injection, schedule: Q01DX009 (ip), vehicle: dioxane
  T/C: 114 % of control
dose: 0.1 mg/kg/injection, schedule: Q01DX009 (ip), vehicle: saline
  T/C: 152 % of control
dose: 0.1 mg/kg/injection, schedule: Q01DX010 (ip), vehicle: saline
  T/C: 118 % of control
dose: 0.1 mg/kg/injection, schedule: Q04DX003 (ip), vehicle: other
  T/C: 118 % of control
dose: 0.13 mg/kg/injection, schedule: Q01DX009 (oral), vehicle: other
  T/C: 109 % of control
dose: 0.2 mg/kg/injection, schedule: Q01DX001 (ip), vehicle: other
  T/C: 118 % of control
dose: 0.2 mg/kg/injection, schedule: Q01DX010 (ip), vehicle: water
  T/C: 118 % of control
dose: 0.2 mg/kg/injection, schedule: Q04DX002 (ip), vehicle: saline
  T/C: 114 % of control
dose: 0.2 mg/kg/injection, schedule: Q04DX003 (ip), vehicle: other
  T/C: 118 % of control
dose: 0.2 mg/kg/injection, schedule: Q08DX002 (ip), vehicle: other
  T/C: 118 % of control
dose: 0.25 mg/kg/injection, schedule: Q01DX009 (oral), vehicle: other
  T/C: 109 % of control
dose: 0.4 mg/kg/injection, schedule: Q01DX001 (ip), vehicle: other
  T/C: 118 % of control
dose: 0.5 mg/kg/injection, schedule: Q01DX001 (ip), vehicle: other
  T/C: 122 % of control
dose: 0.5 mg/kg/injection, schedule: Q01DX009 (oral), vehicle: other
  T/C: 109 % of control
dose: 0.5 mg/kg/injection, schedule: Q03HX008 (ip), vehicle: other
  T/C: 109 % of control
dose: 0.5 mg/kg/injection, schedule: Q04DX003 (ip), vehicle: other
  T/C: 116 % of control
dose: 0.8 mg/kg/injection, schedule: Q01DX001 (ip), vehicle: other
  T/C: 113 % of control
dose: 0.8 mg/kg/injection, schedule: Q01DX009 (ip), vehicle: saline
  T/C: 117 % of control
dose: 0.8 mg/kg/injection, schedule: Q04DX003 (ip), vehicle: other
  T/C: 118 % of control
dose: 0.8 mg/kg/injection, schedule: Q08DX002 (ip), vehicle: other
  T/C: 109 % of control
dose: 1.0 mg/kg/injection, schedule: Q01DX001 (ip), vehicle: other
  T/C: 109 % of control
dose: 1.0 mg/kg/injection, schedule: Q01DX001 (oral), vehicle: other
  T/C: 118 % of control
dose: 1.0 mg/kg/injection, schedule: Q01DX009 (oral), vehicle: other
  T/C: 100 % of control
dose: 1.0 mg/kg/injection, schedule: Q03HX008 (ip), vehicle: other
  T/C: 109 % of control
dose: 1.0 mg/kg/injection, schedule: Q08DX002 (ip), vehicle: other
  T/C: 100 % of control
dose: 2.0 mg/kg/injection, schedule: Q01DX001 (oral), vehicle: other
  T/C: 100 % of control
dose: 2.0 mg/kg/injection, schedule: Q01DX009 (oral), vehicle: other
  T/C: 95 % of control
dose: 4.0 mg/kg/injection, schedule: Q01DX001 (oral), vehicle: other
  T/C: 95 % of control
dose: 31.2 micrograms/kg/injection, schedule: Q01DX009 (ip), vehicle: other
  T/C: 116 % of control
dose: 62.5 micrograms/kg/injection, schedule: Q03HX016 (ip), vehicle: other
  T/C: 116 % of control
dose: 62.5 micrograms/kg/injection, schedule: Q03HX024 (ip), vehicle: other
  T/C: 116 % of control
dose: 125.0 micrograms/kg/injection, schedule: Q03HX016 (ip), vehicle: other
  T/C: 100 % of control
dose: 125.0 micrograms/kg/injection, schedule: Q03HX024 (ip), vehicle: other
  T/C: 91 % of control
dose: 250.0 micrograms/kg/injection, schedule: Q01DX009 (ip), vehicle: other
  T/C: 116 % of control
dose: 667.0 micrograms/kg/injection, schedule: Q04DX003 (ip), vehicle: alkali diluted with saline
  T/C: 120 % of control

## Cc1nccn1C[c-]1[c-][c-][c-][c-]1.[Fe].[c-]1[c-][c-][cH-][c-]1
dose: 6.25 mg/kg/injection, schedule: Q01DX009 (ip), vehicle: saline
  T/C: 108 % of control
dose: 12.5 mg/kg/injection, schedule: Q01DX009 (ip), vehicle: saline
  T/C: 99 % of control
dose: 25.0 mg/kg/injection, schedule: Q01DX009 (ip), vehicle: saline
  T/C: 100 % of control

## CSc1ncc(C)c[n+]1-c1ccccc1
dose: 50.0 mg/kg/injection, schedule: Q04DX002 (ip), vehicle: saline with Tween-80
  T/C: 106 % of control
[1]
  T/C: 107 % of control

## COC(=O)/C=C/CCBr
[1]
  T/C: 104 % of control
dose: 200.0 mg/kg/injection, schedule: Q04DX002 (ip), vehicle: saline with Tween-80
  T/C: 109 % of control
dose: 400.0 mg/kg/injection, schedule: Q04DX002 (ip), vehicle: saline with Tween-80
  T/C: 114 % of control

## CCOCCC(O)CC (stereo not drawn)
dose: 178.0 mg/kg/injection, schedule: Q04DX003 (ip), vehicle: saline
  T/C: 100 % of control
dose: 266.0 mg/kg/injection, schedule: Q04DX003 (ip), vehicle: saline
  T/C: 100 % of control
[2]
  T/C: 100 % of control

## CCB(CC)OCC1OB(CC)OC1C1OB(CC)OC1COB(CC)CC (stereo not drawn)
dose: 50.0 mg/kg/injection, schedule: Q01DX009 (ip), vehicle: saline
  T/C: 99 % of control
[3]
  T/C: 97 % of control
[4]
  T/C: 99 % of control

## O=c1[nH]c2ccccc2nc1CBr
dose: 6.25 mg/kg/injection, schedule: Q01DX009 (ip), vehicle: saline with Tween-80
  T/C: 118 % of control and 122 % of control
dose: 7.5 mg/kg/injection, schedule: Q04DX003 (ip), vehicle: saline with Tween-80
  T/C: 118 % of control
dose: 12.5 mg/kg/injection, schedule: Q01DX009 (ip), vehicle: saline with Tween-80
  T/C: 118 % of control
dose: 12.5 mg/kg/injection, schedule: Q04DX003 (ip), vehicle: saline with Tween-80
  T/C: 109 % of control
dose: 15.0 mg/kg/injection, schedule: Q04DX003 (ip), vehicle: saline with Tween-80
  T/C: 104 % of control
dose: 25.0 mg/kg/injection, schedule: Q04DX003 (ip), vehicle: saline with Tween-80
  T/C: 113 % of control
dose: 30.0 mg/kg/injection, schedule: Q04DX003 (ip), vehicle: saline with Tween-80
  T/C: 118 % of control
dose: 60.0 mg/kg/injection, schedule: Q04DX003 (ip), vehicle: saline with Tween-80
  T/C: 100 % of control

## Cc1ccc2c(=O)n3cccc3c(=O)[nH]c2c1O
dose: 100.0 mg/kg/injection, schedule: Q04DX003 (ip), vehicle: saline with Tween-80
  T/C: 103 % of control
dose: 200.0 mg/kg/injection, schedule: Q04DX003 (ip), vehicle: saline with Tween-80
  T/C: 100 % of control
dose: 400.0 mg/kg/injection, schedule: Q04DX003 (ip), vehicle: saline with Tween-80
  T/C: 96 % of control

## COc1ccc(OC)c(C(=O)C=C(C(F)(F)F)C(F)(F)F)c1
dose: 33.0 mg/kg/injection, schedule: Q01DX009 (ip), vehicle: other
  T/C: 109 % of control
dose: 50.0 mg/kg/injection, schedule: Q01DX009 (ip), vehicle: other
  T/C: 113 % of control
dose: 75.0 mg/kg/injection, schedule: Q01DX009 (ip), vehicle: other
  T/C: 122 % of control

## CC1(C)N=C(N)N=C(N)N1c1cccc(CC(=O)Nc2ccc(S(=O)(=O)F)cc2)c1
dose: 25.0 mg/kg/injection, schedule: Q01DX009 (ip), vehicle: saline with Tween-80
  T/C: 120 % of control
dose: 50.0 mg/kg/injection, schedule: Q01DX009 (ip), vehicle: saline with Tween-80
  T/C: 155 % of control
dose: 100.0 mg/kg/injection, schedule: Q01DX009 (ip), vehicle: saline with Tween-80
  T/C: 175 % of control
dose: 200.0 mg/kg/injection, schedule: Q01DX009 (ip), vehicle: saline with Tween-80
  T/C: 170 % of control

## O=CC1CO1 (stereo not drawn)
dose: 33.0 mg/kg/injection, schedule: Q01DX009 (ip), vehicle: saline sonified
  T/C: 150 % of control
dose: 33.0 mg/kg/injection, schedule: Q01DX009 (ip), vehicle: saline
  T/C: 116 % of control

## CC(CS(=O)(=O)O)N1CCOCC1 (stereo not drawn)
[3]
  T/C: 91 % of control
dose: 100.0 mg/kg/injection, schedule: Q04DX003 (ip), vehicle: saline
  T/C: 104 % of control
[4]
  T/C: 104 % of control
dose: 200.0 mg/kg/injection, schedule: Q04DX003 (ip), vehicle: saline
  T/C: 100 % of control
[2]
  T/C: 95 % of control
